The target in assay [1] is T1, KRas^Q61H (Homo sapiens, UniProt P01116, Q61H).
T1 construct: Biotinylated KRas (corresponding to amino acids 1-169, produced at Accelegan Inc.); biotin (biotinylated); purchased Accelegan Inc
The experiment in a line: KRas binding assay (TR-FRET tracer displacement), KRas Q61H. To be noted: for IC50: TR-FRET tracer displacement, KRas Q61H. (In general: Time-resolved FRET reads energy transfer from a long-lived donor to a nearby acceptor.)

Assay [2] has as its target T2, KRas^G12A (Homo sapiens, UniProt P01116, G12A).
T2 construct: Biotinylated KRas (corresponding to amino acids 1-169, produced at Accelegan Inc.); biotin (biotinylated); purchased Accelegan Inc
The experiment in a line: KRas binding assay (TR-FRET tracer displacement), KRas G12A. The note with it: for IC50: TR-FRET tracer displacement, KRas G12A.

The subject of assay [3] is KRas-mediated phosphorylation of ERK in HCT116 cells. Put plainly: Inhibition of KRas-mediated phosphorylation of ERK (Cisbio HTRF pERK), HCT116 cells. The note with it: Homo sapiens, HCT-116, 3 h, single point, 100 nM compound, 3 hrs. Type of assay: cell-based. The method in brief:
(§1)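 Each compound was tested at 10 concentrations, threefold apart with 10 uM the highest, for 3 hrs on 6,000 seeded cells; final DMSO was 0.8% and Trametinib (0.2 uM) served as Min control. Lysed cells were analysed for pERK by HTRF.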

For assay [4], the target named is T3, KRas^G13D (Homo sapiens, UniProt P01116, G13D).
T3 construct: Biotinylated KRas (corresponding to amino acids 1-169, produced at Accelegan Inc.); biotin (biotinylated); purchased Accelegan Inc
The experiment in a line: KRas binding assay (TR-FRET tracer displacement), KRas G13D. To be noted: for IC50: TR-FRET tracer displacement, KRas G13D.

The target of assay [5] is T4, KRas^G12S (Homo sapiens, UniProt P01116, G12S).
T4 construct: Biotinylated KRas (corresponding to amino acids 1-169, produced at Accelegan Inc.); biotin (biotinylated); purchased Accelegan Inc
Put plainly: KRas binding assay (TR-FRET tracer displacement), KRas G12S. To be noted: for IC50: TR-FRET tracer displacement, KRas G12S.

The target in assay [6] is T5, KRas^G12V (Homo sapiens, UniProt P01116, G12V).
T5 construct: Biotinylated KRas (corresponding to amino acids 1-169, produced at Accelegan Inc.); biotin (biotinylated); purchased Accelegan Inc
The experiment in a line: KRas binding assay (TR-FRET tracer displacement), KRas G12V.

In assay [7] the test system is KRas-mediated phosphorylation of ERK in H460 cells. The experiment in a line: Inhibition of KRas-mediated phosphorylation of ERK (Cisbio HTRF pERK), H460 cells. Type of assay: cell-based. The note with it: Homo sapiens, NCI-H460, 3 h, single point, 100 nM compound, 3 hrs. The method in brief:
(§2)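 Signal read by HTRF (d2/Cryptate antibody pair, 2 hr room-temperature incubation on lysate). Cells: 6,000 per well, 3 hr compound exposure. Titration: 10 uM highest, 3-fold, 10 points.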

In assay [8] the target is T6, KRas^G12R (Homo sapiens, UniProt P01116, G12R).
T6 construct: Biotinylated KRas (corresponding to amino acids 1-169, produced at Accelegan Inc.); biotin (biotinylated); purchased Accelegan Inc
Put plainly: KRas binding assay (TR-FRET tracer displacement), KRas G12R.

In assay [9] the target is T7, KRas^G12D (Homo sapiens, UniProt P01116, G12D).
T7 construct: Biotinylated KRas (corresponding to amino acids 1-169, produced at Accelegan Inc.); biotin (biotinylated); purchased Accelegan Inc
Put plainly: KRas binding assay (TR-FRET tracer displacement), KRas G12D.

Assay [10] concerns KRas-mediated phosphorylation of ERK in A549 cells. The experiment in a line: Inhibition of KRas-mediated phosphorylation of ERK (Cisbio HTRF pERK), A549 cells. Type of assay: cell-based. The note with it: Homo sapiens, A549, 3 h, single point, 100 nM compound, 3 hrs. The method in brief: as §1
In assay [11] the target is T8, KRas^WT (Homo sapiens, UniProt P01116).
T8 construct: Biotinylated KRas (corresponding to amino acids 1-169, produced at Accelegan Inc.); biotin (biotinylated); purchased Accelegan Inc
Put plainly: KRas binding assay (TR-FRET tracer displacement), KRas WT. To be noted: for IC50: TR-FRET tracer displacement, KRas WT.

Assay [12] deals with KRas-mediated phosphorylation of ERK in H358 cells. The experiment in a line: Inhibition of KRas-mediated phosphorylation of ERK (Cisbio HTRF pERK), H358 cells. To be noted: Homo sapiens, NCI-H358, 3 h, single point, 100 nM compound, 3 hrs. Type of assay: cell-based. The method in brief:
as §2

Assay [13] has as its system KRas-mediated phosphorylation of ERK in H727 cells. The experiment in a line: Inhibition of KRas-mediated phosphorylation of ERK (Cisbio HTRF pERK), H727 cells. The note with it: Homo sapiens; for IC50: NCI-H727, H727 cells, HTRF pERK; for inhibition at 0.1 µM: NCI-H727, 3 h, single point, 100 nM compound, 3 hrs, H727 cells. Type of assay: cell-based. The method in brief:
as §2

The test system of assay [14] is KRas-mediated phosphorylation of ERK in AsPC-1 cells. The experiment in a line: Inhibition of KRas-mediated phosphorylation of ERK (Cisbio HTRF pERK), AsPC-1 cells. Type of assay: cell-based. To be noted: Homo sapiens; for IC50: ASPC1, AsPC-1 cells, HTRF pERK; for inhibition at 0.1 µM: ASPC1, 3 h, single point, 100 nM compound, 3 hrs, AsPC-1 cells. The method in brief:
as §2

For assay [15], the target named is T9, KRas^G12C (Homo sapiens, UniProt P01116, G12C).
T9 construct: Biotinylated KRas (corresponding to amino acids 1-169, produced at Accelegan Inc.); biotin (biotinylated); purchased Accelegan Inc
The experiment in a line: KRas binding assay (TR-FRET tracer displacement), KRas G12C. To be noted: for IC50: TR-FRET tracer displacement, KRas G12C.

The mark [16] stands for this setting: single point, 10 nM compound, TR-FRET.

T9 sequence (P01116 1-169 isoform P01116-2 G12C): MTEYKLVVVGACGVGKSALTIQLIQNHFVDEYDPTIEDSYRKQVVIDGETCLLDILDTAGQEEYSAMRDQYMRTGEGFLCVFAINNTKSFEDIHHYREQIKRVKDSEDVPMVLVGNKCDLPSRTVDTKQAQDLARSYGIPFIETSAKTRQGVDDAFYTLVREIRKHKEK
T4 sequence (P01116 1-169 isoform P01116-2 G12S): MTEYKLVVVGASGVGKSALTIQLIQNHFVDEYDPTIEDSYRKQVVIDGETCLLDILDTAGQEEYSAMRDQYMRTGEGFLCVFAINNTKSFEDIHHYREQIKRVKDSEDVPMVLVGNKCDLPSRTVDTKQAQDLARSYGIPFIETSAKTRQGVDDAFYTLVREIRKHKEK
T3 sequence (P01116 1-169 isoform P01116-2 G13D): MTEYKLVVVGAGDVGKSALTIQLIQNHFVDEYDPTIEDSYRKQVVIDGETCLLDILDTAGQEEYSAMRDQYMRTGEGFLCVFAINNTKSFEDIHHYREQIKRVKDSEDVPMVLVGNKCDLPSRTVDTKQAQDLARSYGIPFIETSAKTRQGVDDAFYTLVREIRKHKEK
T1 sequence (P01116 1-169 isoform P01116-2 Q61H): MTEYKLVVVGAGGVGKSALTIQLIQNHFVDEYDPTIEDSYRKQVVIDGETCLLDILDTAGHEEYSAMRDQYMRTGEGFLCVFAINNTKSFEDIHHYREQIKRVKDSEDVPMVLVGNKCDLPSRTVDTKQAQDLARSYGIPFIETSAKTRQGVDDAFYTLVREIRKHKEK
T8 sequence (P01116 1-169 isoform P01116-2): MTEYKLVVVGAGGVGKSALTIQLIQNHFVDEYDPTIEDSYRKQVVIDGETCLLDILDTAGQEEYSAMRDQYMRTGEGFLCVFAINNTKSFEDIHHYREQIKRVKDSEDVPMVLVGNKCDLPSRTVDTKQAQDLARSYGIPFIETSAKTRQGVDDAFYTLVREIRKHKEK
T7 sequence (P01116 1-169 isoform P01116-2 G12D): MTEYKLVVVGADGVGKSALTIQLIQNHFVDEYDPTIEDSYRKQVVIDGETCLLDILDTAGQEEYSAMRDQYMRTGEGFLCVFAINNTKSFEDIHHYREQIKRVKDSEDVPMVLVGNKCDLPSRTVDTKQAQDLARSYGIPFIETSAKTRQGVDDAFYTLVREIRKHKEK
T6 sequence (P01116 1-169 isoform P01116-2 G12R): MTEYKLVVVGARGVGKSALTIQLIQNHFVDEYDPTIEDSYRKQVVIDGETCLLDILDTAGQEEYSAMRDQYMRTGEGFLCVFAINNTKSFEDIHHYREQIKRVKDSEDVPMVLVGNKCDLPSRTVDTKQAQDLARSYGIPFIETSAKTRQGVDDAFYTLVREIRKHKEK
T5 sequence (P01116 1-169 isoform P01116-2 G12V): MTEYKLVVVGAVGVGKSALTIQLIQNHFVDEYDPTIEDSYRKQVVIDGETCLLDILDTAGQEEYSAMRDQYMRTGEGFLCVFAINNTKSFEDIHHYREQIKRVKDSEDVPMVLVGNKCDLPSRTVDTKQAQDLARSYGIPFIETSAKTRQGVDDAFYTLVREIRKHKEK
T2 sequence (P01116 1-169 isoform P01116-2 G12A): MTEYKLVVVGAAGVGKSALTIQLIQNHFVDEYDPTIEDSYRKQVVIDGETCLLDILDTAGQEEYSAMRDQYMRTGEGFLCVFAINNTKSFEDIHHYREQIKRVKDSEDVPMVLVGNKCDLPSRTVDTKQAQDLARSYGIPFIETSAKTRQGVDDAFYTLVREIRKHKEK

As usually defined, the IC50 is the concentration needed to halve the response being measured. In general, inhibition refers to the change of the read-out against control, counted positive when it falls. Consider `Cc1ccc2c(-c3ncc4c(N5C[C@@H]6C[C@H](C5)[C@H](O)C6)nc(OC[C@@]56CCCN5C[C@H](F)C6)nc4c3F)cc(O)cc2c1` [Example 746, (1R,5R,6R)-3-(8-fluoro-2-(((2R,7aS)-2-fluorotetrahydro-1H-pyrrolizin-7a(5H)-yl)methoxy)-7-(3-hydroxy-6-methylnaphthalen-1-yl)pyrido[4,3-d]pyrimidin-4-yl)-3-azabicyclo[3.2.1]octan-6-ol], for which the IC50 in assay [1] was found to be 166 nM; in assay [2], 82 nM; in assay [4], 107 nM; in assay [5], 64 nM; in assay [6] it was 59 nM; in assay [8] it was 68 nM. Moreover, the IC50 in assay [9] stood at 226 nM; in [11], 117 nM; in assay [13], 1340 nM; in [14], 2260 nM; in assay [15], 106 nM. Also, the inhibition at 0.1 µM was 10% in assay [3], 2% in assay [7], -19% in assay [10] and -17% in assay [12].

With `Cc1cccc2c(-c3ncc4c(N5C[C@@H]6C[C@H](C5)[C@H](O)C6)nc(OC[C@@]56CCCN5C[C@H](F)C6)nc4c3F)cc(O)cc12` [Example 747, (1R,5R,6R)-3-(8-fluoro-2-(((2R,7aS)-2-fluorohexahydro-1H-pyrrolizin-7a-yl)methoxy)-7-(3-hydroxy-5-methylnaphthalen-1-yl)pyrido[4,3-d]pyrimidin-4-yl)-3-azabicyclo[3.2.1]octan-6-ol], the IC50 stood at 180 nM in assay [1]; 36 nM in assay [2]; 94 nM in assay [4]; 61 nM in [5]; 67 nM in assay [6]; 76 nM in assay [8]. For the same compound, the IC50 in assay [9] came out at 272 nM; in assay [11], 107 nM; in [13], 1260 nM; in assay [14] it was 3850 nM; in [15], 107 nM. The inhibition at 0.1 µM in assay [3] is 5%; in [7], -6%; in assay [10] it was 4%; in assay [12] it was -6%.

Consider `Oc1cc(-c2ncc3c(N4C[C@@H]5C[C@H](C4)[C@H](O)C5)nc(OC[C@@]45CCCN4C[C@H](F)C5)nc3c2F)c2cccc(F)c2c1` [Example 748, (1R,5R,6R)-3-(8-fluoro-7-(5-fluoro-3-hydroxynaphthalen-1-yl)-2-(((2R,7aS)-2-fluorohexahydro-1H-pyrrolizin-7a-yl)methoxy)pyrido[4,3-d]pyrimidin-4-yl)-3-azabicyclo[3.2.1]octan-6-ol], for which the IC50 in [1] is 26 nM; in [2] it was 16 nM; in assay [4], 21 nM; in assay [5], 12 nM; in [6] it was 12 nM; in [8], 11 nM. Also, the half-maximal inhibitory concentration (IC50) stood at 32 nM in assay [9]; 20 nM in assay [11]; 275 nM in [13]; 788 nM in assay [14]; 18 nM in assay [15]. Further, the inhibition at 0.1 µM is 21% in assay [3], -6% in assay [7], -7% in [10] and 5% in assay [12].

In the case of `Oc1cc(-c2ncc3c(N4C[C@@H]5C[C@H](C4)[C@H](O)C5)nc(OC[C@@]45CCCN4C[C@H](F)C5)nc3c2F)c2ccc(F)cc2c1` [Example 749, (1R,5R,6R)-3-(8-fluoro-7-(6-fluoro-3-hydroxynaphthalen-1-yl)-2-(((2R,7aS)-2-fluorohexahydro-1H-pyrrolizin-7a-yl)methoxy)pyrido[4,3-d]pyrimidin-4-yl)-3-azabicyclo[3.2.1]octan-6-ol], the IC50 was 44 nM in assay [1]; 25 nM in assay [2]; 37 nM in assay [4]; 19 nM in assay [5]; 19 nM in assay [6]; 16 nM in assay [8]. The half-maximal inhibitory concentration (IC50) in assay [9] turned out to be 54 nM; in [11] it was 34 nM; in assay [13], 246 nM; in assay [14] it was 1400 nM; in [15], 29 nM. Besides, the inhibition at 0.1 µM is 20% in assay [3], -3% in assay [7], 15% in [10] and -5% in assay [12].

`Oc1cc(-c2ncc3c(N4C[C@@H]5C[C@H](C4)[C@H](O)C5)nc(OC[C@@]45CCCN4C[C@H](F)C5)nc3c2F)c2ccccc2c1F` [Example 750, (1R,5R,6R)-3-(8-fluoro-7-(4-fluoro-3-hydroxynaphthalen-1-yl)-2-(((2R,7aS)-2-fluorotetrahydro-1H-pyrrolizin-7a(5H)-yl)methoxy)pyrido[4,3-d]pyrimidin-4-yl)-3-azabicyclo[3.2.1]octan-6-ol]: the IC50 in assay [1] is 184 nM; in assay [2], 63 nM; in assay [4], 74 nM; in [5], 43 nM; in [6], 29 nM; in [8], 42 nM. Moreover, the IC50 was found to be 98 nM in assay [9]; 84 nM in [11]; 1680 nM in [13]; 1900 nM in [14]; 74 nM in assay [15]. Also, the inhibition at 0.1 µM in assay [3] was 2%; in assay [7], 16%; in assay [10] it was -1%; in assay [12], 15%; in assay [13], 1%; in assay [14], -1%.

For the compound `C#Cc1c(F)ccc2cc(O)cc(-c3ncc4c(N5CCC[C@@](C)(O)C5)nc(OCC5(CN6CCCC6)CC5)nc4c3F)c12` [Example 752, (R)-1-(7-(8-ethynyl-7-fluoro-3-hydroxynaphthalen-1-yl)-8-fluoro-2-((1-(pyrrolidin-1-ylmethyl)cyclopropyl)methoxy)pyrido[4,3-d]pyrimidin-4-yl)-3-methylpiperidin-3-ol], the inhibition at 0.01 µM stood at 99% in assay [1] (setting [16]); 96% in assay [2] (setting [16]); 98% in [4] (setting [16]); 97% in [5] (setting [16]); 97% in assay [11] (setting [16]); 99% in assay [15] (setting [16]). For the same compound, the inhibition at 0.1 µM was 32% in [3]; 44% in assay [7]; 31% in assay [10]; 76% in [12]; 31% in assay [13]; 27% in assay [14]. Besides, the IC50 in assay [6] is less than 2 nM; in [8], less than 2 nM; in assay [9] it was less than 2 nM; in [13], 53 nM; in assay [14], 55 nM.

Consider `O=S1(=O)NCC2(CCCN(c3nc(OCC45CCCN4CCC5)nc4c(F)c(-c5c6ccccc6cc6[nH]ncc56)ncc34)C2)N1` (stereo not shown) [Example 758, 7-(7-(1H-benzo[f]indazol-4-yl)-8-fluoro-2-((hexahydro-1H-pyrrolizin-7a-yl)methoxy)pyrido[4,3-d]pyrimidin-4-yl)-2-thia-1,3,7-triazaspiro[4.5]decane 2,2-dioxide], for which the IC50 in assay [1], in assay [2], in [4], in assay [5], in [6] and in assay [8] was less than 2 nM each time. In addition, the IC50 in assay [9] was 5 nM; in [11], less than 2 nM; in [13] it was 1780 nM; in assay [14] it was 1270 nM; in assay [15], less than 2 nM. Further, the inhibition at 0.1 µM turned out to be 20% in assay [3], 9% in assay [7], 11% in assay [10] and 23% in [12].
